Data reported in patent publication US5789386A, “Fluorine-containing anthracycline derivatives having hydroxyl groups(s) mono- or di-o-aminoalkanoylated in the sugar moiety thereof” (priority 1995, dated 1998).
≈ marks a conversion by molar mass, not a printed value. Like-named read-outs stand apart in the source and are kept apart here.

Experiments:
Leukemia L-1210 cells = experiment: Antitumor test against leukemia L-1210 in CDF1 mice (T/C, %); type: in vivo, mouse (CDF1); conditions: for % Increase in life-span (T/C, %) / mice cured and surviving for 60 days or longer / mice tested: 9 days; for percentage (%) of increase in life-span (T/C, %) at maximum: 2.5 mg/kg/day to 5 mg/kg/day; for percentage (%) of increase in life-span (T/C, %) at maximum / development of toxicity (in words): L-1210 mice; for development of toxicity (in words): adriamycin 2.5 mg/kg/day to 5 mg/kg/day
Description: Thus, to evaluate the antitumor effects of the new compounds according to the first aspect of this invention against experimental tumors in animals, CDF1 mice (four mice per group) were intraperitoneally transplanted with cells of Leukemia L-1210 at an amount of 1×10^5 cells/mouse. Since an elapsed time of 24 hours from the transplantation of the leukemia cells, a test compound according to this invention was administered intraperitoneally to the mice under test for 9 consecutive days once per day. […] While, mice of the control group (the untreated group) were administered with only physiological saline after the transplantation of the L-1210 cells. During the observation period, the numbers of the surviving mice in the treated group and in the control group were counted, and the mean survival days of mice in the treated group and in the control group were then calculated. From the mean survival day (C) of the untreated mice of the control group and the mean survival day (T) of the treated mice of the treated group, there were evaluated percentages (%) of the increase in the life-span of the treated mice, as T/C %. For a comparison purpose, 7-O-(2,6-dideoxy-2-fluoro-α-L-talopyranosyl)daunomycinone (abbreviation: FT-DM); 7-O-(2,6-dideoxy-2-fluoro-α-L-talopyranosyl)adriamycinone(abbreviation: FT-ADM); and adriamycin were also tested in the same manner as above. Incidentally, the mean survival day of mice of the control group (the untreated group) was amounting to 8 to 9 days, and the mean survival day of mice of the comparative groups having received the administration of adriamycin was varying dependently on the dosage of adriamycin.
Notes; Asterisks (*) indicate that development of toxicity such as
toxicityrelated death or a body weight loss was observed on the
corresponding mice tested.

[1] = test system: mouse leukemia, P388 cells; experiment: In vitro growth inhibition of P388 cells, 72 hours; type: cell-based
[2] = test system: adriamycin-resistant P388 cells (P388/ADR); experiment: In vitro growth inhibition of adriamycin-resistant P388 cells (P388/ADR), 72 hours; type: cell-based; conditions: Mus musculus
[3] = cited from earlier work
experimental tumors = conditions: test animals; background, earlier applications; cited from earlier work
[4] = low dosages which give high antitumor effects; test animals; cited from earlier work
[5] = 0.3 mg/kg/day i.p., ">" = at least one of four mice survived 60 days or longer
[6] = 0.6 mg/kg/day i.p., ">" = at least one of four mice survived 60 days or longer
[7] = 1.25 mg/kg/day i.p., ">" = at least one of four mice survived 60 days or longer
[8] = 2.5 mg/kg/day i.p., ">" = at least one of four mice survived 60 days or longer
[9] = 5 mg/kg/day i.p., ">" = at least one of four mice survived 60 days or longer
[10] = 72 hours, test compounds as trifluoroacetate, read-out: IC50
[11] = P388, 72 hours, test compounds as trifluoroacetate, read-out: IC50

| IC50 [1, 11] | Compound | % Increase in life-span (T/C, %) (Leukemia L-1210 cells; 0.15 mg/kg/day i.p.) | % Increase in life-span (T/C, %) (Leukemia L-1210 cells; [5]) | % Increase in life-span (T/C, %) (Leukemia L-1210 cells; [6]) | % Increase in life-span (T/C, %) (Leukemia L-1210 cells; [7]) | % Increase in life-span (T/C, %) (Leukemia L-1210 cells; [8]) | % Increase in life-span (T/C, %) (Leukemia L-1210 cells; [9]) | IC50 ([1]; P388, 72 h) | IC50 [2, 10] | also measured |
| --- | --- | --- | --- | --- | --- | --- | --- | --- | --- | --- |
|  | COc1cccc2c1C(=O)c1c(O)c3c(c(O)c1C2=O)C[C@@](O)(C(=O)CO)C[C@@H]3O[C@H]1C[C@H](N)[C@H](O)[C@H](C)O1 [Adriamycin, adriamycin, reference compound] | 140% | 132% | 208% | 330% | 273% | 177% | 0.033 µg/mL (≈ 0.0607 µM) |  | percentage (%) of increase in life-span (T/C, %) at maximum (Leukemia L-1210 cells): approximately 330%; development of toxicity (in words) (Leukemia L-1210 cells; daunomycin): being accompanied by development of toxicity; IC50 ([2]; 72 h): 1.3 µg/mL (≈ 2.39 µM); serious side-effects (in words) ([3]; clinical use, many instances): serious side-effects such as leukocytopenia, alopecia, myocardiopathy and others |
|  | COc1cccc2c1C(=O)c1c(O)c3c(c(O)c1C2=O)C[C@@](O)(C(=O)CO)C[C@@H]3O[C@@H]1O[C@@H](C)[C@@H](OC(=O)CN)[C@@H](OC(=O)CN)[C@H]1F [Compound 11a, 7-O-(2,6-dideoxy-2-fluoro-3,4-di-O-glycyl-α-L-talopyranosyl)adriamycinone] | 111% | 125% | 170% | 321% | > 430% | > 518% | < 0.0098 µg/mL | 0.32 µg/mL (≈ 0.473 µM) | mice cured and surviving for 60 days or longer / mice tested (Leukemia L-1210 cells; 2.5 mg/kg/day i.p.): 1/4; mice cured and surviving for 60 days or longer / mice tested (Leukemia L-1210 cells; 5 mg/kg/day i.p.): 2/4 |
|  | COc1cccc2c1C(=O)c1c(O)c3c(c(O)c1C2=O)C[C@@](O)(C(=O)CO)C[C@@H]3O[C@@H]1O[C@@H](C)[C@@H](OC(=O)[C@H](C)N)[C@@H](OC(=O)[C@H](C)N)[C@H]1F [Compound 11b, 7-O-(3,4-di-O-L-alanyl-2,6-dideoxy-2-fluoro-α-L-talopyranosyl)adriamycinone] | 115% | 144% | > 361% | > 407% | > 666% | > 502% | < 0.0098 µg/mL | 0.31 µg/mL (≈ 0.44 µM) | mice cured and surviving for 60 days or longer / mice tested (Leukemia L-1210 cells; 0.6 mg/kg/day i.p.): 1/4; mice cured and surviving for 60 days or longer / mice tested (Leukemia L-1210 cells; 1.25 mg/kg/day i.p.): 1/4; mice cured and surviving for 60 days or longer / mice tested (Leukemia L-1210 cells; 2.5 mg/kg/day i.p.): 2/4; mice cured and surviving for 60 days or longer / mice tested (Leukemia L-1210 cells; 5 mg/kg/day i.p.): 2/4; antitumor activities (in words) (Leukemia L-1210 cells; compared with FT-DM, FT-ADM, daunomycin, adriamycin or another test compound): a little inferior to the antitumor activities of said mixture of Compounds 8b and 9b but are yet considerably high antiumor activities |
| 0.016 µg/mL (≈ 0.0176 µM) | COc1cccc2c1C(=O)c1c(O)c3c(c(O)c1C2=O)C[C@@](O)(C(=O)CO)C[C@@H]3O[C@@H]1O[C@@H](C(F)(F)F)[C@@H](OC(=O)[C@@H](N)Cc2ccccc2)[C@@H](OC(=O)[C@@H](N)Cc2ccccc2)[C@H]1F [Compound 37, 7-O-(2,6-dideoxy-2,6,6,6-tetrafuluoro-3,4-di-O-L-phenylalanyl-α-L-talopyranosyl)adriamycinone] |  |  |  |  |  |  |  | 0.17 µg/mL (≈ 0.187 µM) |  |
|  | COc1cccc2c1C(=O)c1c(O)c3c(c(O)c1C2=O)C[C@@](O)(C(=O)CO)C[C@@H]3O[C@H]1C[C@H](OC(=O)[C@H](C)N)[C@H](OC(=O)[C@H](C)N)[C@H](C(F)(F)F)O1 [Compound 43, 7-O-(3,4-di-O-L-alanyl-2,6-dideoxy-6,6,6-trifluoro-α-L-lyxo-hexopyranosyl)adriamycinone] |  |  |  |  |  |  | < 0.0098 µg/mL | 0.22 µg/mL (≈ 0.297 µM) |  |
| 0.02 µg/mL (≈ 0.0224 µM) | COc1cccc2c1C(=O)c1c(O)c3c(c(O)c1C2=O)C[C@@](O)(C(=O)CO)C[C@@H]3O[C@H]1C[C@H](OC(=O)[C@@H](N)Cc2ccccc2)[C@H](OC(=O)[C@@H](N)Cc2ccccc2)[C@H](C(F)(F)F)O1 [Compound 49, 7-O-(2,6-dideoxy-6,6,6-trifluoro-3,4-di-O-L-phenylalanyl-α-L-lyxo-hexopyranosyl)adriamycinone] |  |  |  |  |  |  |  | 0.28 µg/mL (≈ 0.314 µM) |  |
|  | COc1cccc2c1C(=O)c1c(O)c3c(c(O)c1C2=O)C[C@@](O)(C(C)=O)C[C@@H]3O[C@H]1C[C@H](N)[C@H](O)[C@H](C)O1 [daunomycin, reference compound] |  |  |  |  |  |  |  |  | percentage (%) of increase in life-span (T/C, %) at maximum (Leukemia L-1210 cells): approximately 330%; development of toxicity (in words) (Leukemia L-1210 cells; daunomycin): being accompanied by development of toxicity; serious side-effects (in words) ([3]; in vivo): serious side-effects such as leukocytopenia, alopecia, myocardiopathy and others |
|  | COc1cccc2c1C(=O)c1c(O)c3c(c(O)c1C2=O)C[C@@](O)(C(=O)CO)C[C@@H]3O[C@H]1C[C@H](O)[C@H](O)[C@H](C(F)(F)F)O1 [formula (D), 7-O-(2,6-dideoxy-6,6,6-trifluoro-α-L-lyxo-hexopyranosyl)adriamycinone] |  |  |  |  |  |  |  |  | anticancer or antitumor activity (in words) (experimental tumors): high anticancer or antitumor activity; development of acute toxicity (in words) [4]: development of acute toxicity does not take place |

| Compound | IC50 [1, 11] | % Increase in life-span (T/C, %) (Leukemia L-1210 cells; 0.15 mg/kg/day i.p.) | % Increase in life-span (T/C, %) (Leukemia L-1210 cells; [5]) | % Increase in life-span (T/C, %) (Leukemia L-1210 cells; [6]) | % Increase in life-span (T/C, %) (Leukemia L-1210 cells; [7]) | % Increase in life-span (T/C, %) (Leukemia L-1210 cells; [8]) | % Increase in life-span (T/C, %) (Leukemia L-1210 cells; [9]) | IC50 ([1]; P388, 72 h) | IC50 [2, 10] | also measured |
| --- | --- | --- | --- | --- | --- | --- | --- | --- | --- | --- |
| COc1cccc2c1C(=O)c1c(O)c3c(c(O)c1C2=O)C[C@@](O)(C(=O)CO)C[C@@H]3O[C@@H]1O[C@@H](C)[C@@H](OC(=O)[C@@H](N)Cc2ccccc2)[C@@H](OC(=O)[C@@H](N)Cc2ccccc2)[C@H]1F [Compound 11c, 7-O-(2,6-dideoxy-2-fluoro-3,4-di-O-L-phenylalanyl-α-L-talopyranosyl)adriamycinone] | 0.026 µg/mL (≈ 0.0303 µM) | 123% | 130% | 143% | 170% | 177% | 253% |  | 0.14 µg/mL (≈ 0.163 µM) |  |
